# Measurements published in the supplement of paper PMC12463676, “Small-molecule dissolution of stress granules by redox modulation benefits ALS models” (Nature Chemical Biology, 2025).
# Tests used:
# lipoamide = compound: NC(=O)CCCCC1CCSS1 [lipoamide]; assay: thermal stability z-score vs DMSO; higher = more thermally stabilized by treatment; settings: HeLa, lipoamide concentration 100 µM
# Method: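 Cellular thermal proteome profiling in HeLa cells. Cells were treated with 100 µM lipoamide for 1 h, with or without 1 mM arsenate for a further 1 h, then heated to ten temperatures (37-66.3 °C), and soluble protein was quantified by TMT mass spectrometry relative to 0.1% DMSO controls. The thermal stability score (sum of log2 fold changes minus the abundance score) was transformed to a z-score; mean of n = 3 experiments.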
# potassium arsenate = compound: O=[As]([O-])(O)O.[K+] [potassium arsenate]; assay: as above; settings: HeLa; arsenate concentration 1 mM
# Method: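 Cellular thermal proteome profiling in HeLa cells treated with 1 mM arsenate for 1 h (DMSO pretreatment), heated to ten temperatures (37-66.3 °C). Soluble protein was quantified by TMT mass spectrometry relative to DMSO controls; the thermal stability score was transformed to a z-score; mean of n = 3 experiments.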
# [1] = arsenate co-treatment: 1 mM arsenate 1 h
# 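Also: each temperature applied for 3 min, abundance score taken as mean log2 fold change at the two lowest temperatures, z-score obtained by mean subtraction and division by SD.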
# Sequence of UniProt Q8WWB7 (Q8WWB7 whole entry): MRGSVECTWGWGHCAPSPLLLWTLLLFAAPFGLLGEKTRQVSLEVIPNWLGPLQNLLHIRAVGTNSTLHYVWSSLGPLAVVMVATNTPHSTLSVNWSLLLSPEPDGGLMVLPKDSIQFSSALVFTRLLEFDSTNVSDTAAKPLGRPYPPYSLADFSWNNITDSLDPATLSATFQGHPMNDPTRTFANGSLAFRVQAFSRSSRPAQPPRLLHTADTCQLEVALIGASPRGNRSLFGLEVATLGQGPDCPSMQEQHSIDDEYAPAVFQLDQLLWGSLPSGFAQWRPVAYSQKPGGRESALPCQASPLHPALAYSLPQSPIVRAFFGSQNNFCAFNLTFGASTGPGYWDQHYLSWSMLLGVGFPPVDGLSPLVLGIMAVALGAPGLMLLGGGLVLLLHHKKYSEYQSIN
# Sequence of UniProt Q8TF64 (Q8TF64 whole entry): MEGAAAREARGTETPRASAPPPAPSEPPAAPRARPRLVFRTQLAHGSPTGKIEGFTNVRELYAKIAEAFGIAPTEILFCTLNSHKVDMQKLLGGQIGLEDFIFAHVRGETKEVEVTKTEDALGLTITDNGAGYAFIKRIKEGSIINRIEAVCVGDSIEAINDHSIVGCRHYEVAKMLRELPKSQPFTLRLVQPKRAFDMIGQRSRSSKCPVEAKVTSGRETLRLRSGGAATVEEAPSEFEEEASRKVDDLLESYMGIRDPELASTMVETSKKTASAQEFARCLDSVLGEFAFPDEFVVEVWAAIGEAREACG
# Sequence of UniProt Q9Y248 (Q9Y248 whole entry): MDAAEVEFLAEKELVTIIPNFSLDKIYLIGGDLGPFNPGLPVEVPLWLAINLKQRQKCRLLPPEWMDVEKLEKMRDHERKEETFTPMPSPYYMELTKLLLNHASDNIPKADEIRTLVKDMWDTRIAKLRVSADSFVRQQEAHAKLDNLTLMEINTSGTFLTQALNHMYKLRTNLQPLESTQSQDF
# Sequence of UniProt Q9UJY5 (Q9UJY5 whole entry): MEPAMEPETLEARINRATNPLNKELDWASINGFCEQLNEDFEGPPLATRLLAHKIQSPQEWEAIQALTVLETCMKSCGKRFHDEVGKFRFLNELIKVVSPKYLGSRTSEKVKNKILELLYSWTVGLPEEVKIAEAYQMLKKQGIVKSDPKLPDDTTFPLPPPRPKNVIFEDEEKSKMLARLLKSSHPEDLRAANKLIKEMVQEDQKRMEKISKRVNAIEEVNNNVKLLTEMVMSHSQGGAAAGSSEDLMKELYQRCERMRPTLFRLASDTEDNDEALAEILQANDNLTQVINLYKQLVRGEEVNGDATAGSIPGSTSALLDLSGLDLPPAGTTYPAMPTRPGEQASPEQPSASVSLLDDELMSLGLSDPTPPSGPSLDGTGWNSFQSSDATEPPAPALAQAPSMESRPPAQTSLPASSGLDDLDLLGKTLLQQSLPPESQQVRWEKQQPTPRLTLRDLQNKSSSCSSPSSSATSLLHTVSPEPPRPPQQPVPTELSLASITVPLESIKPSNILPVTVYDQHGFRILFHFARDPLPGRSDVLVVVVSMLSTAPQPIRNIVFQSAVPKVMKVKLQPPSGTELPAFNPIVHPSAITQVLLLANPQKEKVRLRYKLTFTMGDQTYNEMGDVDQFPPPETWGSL
# Sequence of UniProt Q86VQ1 (Q86VQ1 whole entry): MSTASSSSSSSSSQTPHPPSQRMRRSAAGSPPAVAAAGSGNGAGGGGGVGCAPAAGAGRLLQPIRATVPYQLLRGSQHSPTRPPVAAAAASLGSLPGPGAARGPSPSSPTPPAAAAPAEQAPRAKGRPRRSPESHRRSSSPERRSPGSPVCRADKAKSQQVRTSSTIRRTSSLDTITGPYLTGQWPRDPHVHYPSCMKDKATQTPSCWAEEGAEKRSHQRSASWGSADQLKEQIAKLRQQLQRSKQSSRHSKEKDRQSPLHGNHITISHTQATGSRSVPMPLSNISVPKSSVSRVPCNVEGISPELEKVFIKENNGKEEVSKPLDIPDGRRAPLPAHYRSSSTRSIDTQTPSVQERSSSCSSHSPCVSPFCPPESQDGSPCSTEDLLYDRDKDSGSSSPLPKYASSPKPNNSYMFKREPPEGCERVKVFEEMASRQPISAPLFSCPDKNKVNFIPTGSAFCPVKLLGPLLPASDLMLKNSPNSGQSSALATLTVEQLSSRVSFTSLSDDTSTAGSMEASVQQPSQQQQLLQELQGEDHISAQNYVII
# Sequence of UniProt O14908 (O14908 whole entry): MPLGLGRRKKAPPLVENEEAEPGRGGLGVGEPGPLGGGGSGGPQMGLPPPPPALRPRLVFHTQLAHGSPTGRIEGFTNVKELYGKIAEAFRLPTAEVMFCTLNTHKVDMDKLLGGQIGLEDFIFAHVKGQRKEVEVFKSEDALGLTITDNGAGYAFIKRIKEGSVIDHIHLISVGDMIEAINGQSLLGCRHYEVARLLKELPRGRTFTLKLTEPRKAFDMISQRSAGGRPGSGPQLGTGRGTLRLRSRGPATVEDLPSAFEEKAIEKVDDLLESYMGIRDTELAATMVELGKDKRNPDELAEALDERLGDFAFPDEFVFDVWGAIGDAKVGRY
# Sequence of UniProt P06280 (P06280 whole entry): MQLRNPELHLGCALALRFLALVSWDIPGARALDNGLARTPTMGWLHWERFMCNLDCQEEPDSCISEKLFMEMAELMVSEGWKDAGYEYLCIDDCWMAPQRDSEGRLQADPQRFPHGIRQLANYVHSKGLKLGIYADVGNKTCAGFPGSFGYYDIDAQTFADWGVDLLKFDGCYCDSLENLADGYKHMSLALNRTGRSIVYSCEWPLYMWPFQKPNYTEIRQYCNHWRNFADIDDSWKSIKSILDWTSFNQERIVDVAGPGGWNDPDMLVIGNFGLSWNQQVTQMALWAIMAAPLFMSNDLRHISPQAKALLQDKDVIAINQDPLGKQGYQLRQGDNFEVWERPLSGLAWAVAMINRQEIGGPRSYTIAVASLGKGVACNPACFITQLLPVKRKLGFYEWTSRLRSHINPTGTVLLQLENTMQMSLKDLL
# Sequence of UniProt O75420 (O75420 whole entry): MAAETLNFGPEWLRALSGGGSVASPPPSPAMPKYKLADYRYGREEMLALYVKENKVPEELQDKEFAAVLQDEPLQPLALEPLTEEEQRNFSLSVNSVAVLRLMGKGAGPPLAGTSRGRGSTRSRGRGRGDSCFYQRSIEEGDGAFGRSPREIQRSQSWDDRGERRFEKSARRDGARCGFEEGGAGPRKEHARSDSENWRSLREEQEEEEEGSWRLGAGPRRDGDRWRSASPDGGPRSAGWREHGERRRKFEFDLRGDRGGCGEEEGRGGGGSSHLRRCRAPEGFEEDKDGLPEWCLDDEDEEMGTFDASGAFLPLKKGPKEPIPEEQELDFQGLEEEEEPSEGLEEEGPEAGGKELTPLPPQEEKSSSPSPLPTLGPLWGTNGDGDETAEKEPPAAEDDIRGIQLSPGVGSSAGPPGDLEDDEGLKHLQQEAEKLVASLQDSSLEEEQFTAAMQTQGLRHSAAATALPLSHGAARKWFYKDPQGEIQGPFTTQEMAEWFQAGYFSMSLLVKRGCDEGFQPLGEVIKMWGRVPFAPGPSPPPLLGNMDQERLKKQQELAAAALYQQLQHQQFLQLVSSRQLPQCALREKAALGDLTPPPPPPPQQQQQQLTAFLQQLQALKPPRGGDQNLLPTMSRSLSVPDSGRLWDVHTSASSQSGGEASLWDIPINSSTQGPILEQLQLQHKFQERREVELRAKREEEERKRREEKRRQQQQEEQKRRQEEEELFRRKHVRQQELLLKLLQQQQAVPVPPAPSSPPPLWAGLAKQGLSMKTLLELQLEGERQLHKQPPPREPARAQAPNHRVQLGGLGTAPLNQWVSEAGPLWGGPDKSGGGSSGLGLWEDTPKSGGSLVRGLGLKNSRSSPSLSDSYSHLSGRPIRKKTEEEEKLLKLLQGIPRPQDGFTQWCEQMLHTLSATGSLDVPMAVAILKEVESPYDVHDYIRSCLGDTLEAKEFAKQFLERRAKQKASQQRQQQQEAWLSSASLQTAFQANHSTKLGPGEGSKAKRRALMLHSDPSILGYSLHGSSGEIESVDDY
# Sequence of UniProt Q9NWU2 (Q9NWU2 whole entry): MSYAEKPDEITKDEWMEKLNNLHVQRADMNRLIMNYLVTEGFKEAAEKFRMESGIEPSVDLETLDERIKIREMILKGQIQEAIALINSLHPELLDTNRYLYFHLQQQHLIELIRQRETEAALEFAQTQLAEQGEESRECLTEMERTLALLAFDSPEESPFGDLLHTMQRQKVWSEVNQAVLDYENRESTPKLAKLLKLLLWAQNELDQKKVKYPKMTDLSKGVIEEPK
# Sequence of UniProt Q8N2G8 (Q8N2G8 whole entry): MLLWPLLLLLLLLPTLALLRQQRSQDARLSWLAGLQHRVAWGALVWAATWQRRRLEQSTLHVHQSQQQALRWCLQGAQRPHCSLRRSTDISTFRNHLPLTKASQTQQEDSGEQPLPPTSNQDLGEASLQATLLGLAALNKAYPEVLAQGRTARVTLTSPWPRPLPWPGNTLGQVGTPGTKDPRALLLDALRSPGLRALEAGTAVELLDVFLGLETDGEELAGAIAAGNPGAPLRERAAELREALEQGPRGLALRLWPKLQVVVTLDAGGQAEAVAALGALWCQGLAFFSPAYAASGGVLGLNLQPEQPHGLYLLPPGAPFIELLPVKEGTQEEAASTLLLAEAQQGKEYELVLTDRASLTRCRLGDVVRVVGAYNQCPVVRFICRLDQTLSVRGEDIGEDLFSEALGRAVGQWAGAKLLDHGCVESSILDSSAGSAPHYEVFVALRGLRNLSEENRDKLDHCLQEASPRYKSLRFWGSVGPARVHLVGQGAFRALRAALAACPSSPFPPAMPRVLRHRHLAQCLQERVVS
# Sequence of UniProt O95749 (O95749 whole entry): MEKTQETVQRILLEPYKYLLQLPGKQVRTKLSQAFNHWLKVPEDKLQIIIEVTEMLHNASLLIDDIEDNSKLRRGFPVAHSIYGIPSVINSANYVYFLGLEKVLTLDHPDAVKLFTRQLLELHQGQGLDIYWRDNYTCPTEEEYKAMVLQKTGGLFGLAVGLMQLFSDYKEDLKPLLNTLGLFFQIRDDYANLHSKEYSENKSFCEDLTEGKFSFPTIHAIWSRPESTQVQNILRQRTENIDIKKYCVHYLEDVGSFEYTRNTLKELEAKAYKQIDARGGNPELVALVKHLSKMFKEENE
Target,thermal stability z-score (lipoamide; [1]),thermal stability z-score (lipoamide; arsenate co-treatment: none),thermal stability z-score (potassium arsenate)
GET4 (UniProt Q7L5D6),-0.844,-0.0598,0.752
GFER (UniProt P55789),0.239,0.231,0.816
GFM1 (UniProt Q96RP9),-0.469,0.0798,-1.15
GFM2 (UniProt Q969S9),0.216,0.105,0.226
GFPT1 (UniProt Q06210),-0.127,-0.196,-0.331
GFPT2 (UniProt O94808),0.344,-0.0258,-0.593
GGA1 (UniProt Q9UJY5),-0.523,-0.393,0.27
GGA2 (UniProt Q9UJY4),-0.076,-0.0378,-0.335
GGA3 (UniProt Q9NZ52),-0.3,0.0568,-0.298
GGCT (UniProt O75223),1.7,1.02,1.11
GGCX (UniProt P38435),-0.482,-0.632,-0.0562
GGH (UniProt Q92820),0.661,0.64,0.317
GGNBP2 (UniProt Q9H3C7),0.141,0.168,-1.84
GGPS1 (UniProt O95749),0.498,0.521,-0.212
GHDC (UniProt Q8N2G8),-0.848,0.229,0.229
GHITM (UniProt Q9H3K2),-0.161,-0.193,-0.0999
GID8 (UniProt Q9NWU2),0.00199,0.0715,-0.0145
GIGYF1 (UniProt O75420),0.0328,0.0305,0.0812

Target,thermal stability z-score (lipoamide; [1]),thermal stability z-score (lipoamide; arsenate co-treatment: none),thermal stability z-score (potassium arsenate)
GIGYF2 (UniProt Q6Y7W6),-0.406,-0.109,0.0976
GINS1 (UniProt Q14691),-0.512,-0.399,-0.404
GINS2 (UniProt Q9Y248),-0.0167,0.00771,0.0793
GINS3 (UniProt Q9BRX5),0.275,-0.19,-0.288
GINS4 (UniProt Q9BRT9),0.2,-0.173,-0.614
GIPC1 (UniProt O14908),-0.301,-0.267,-0.251
GIPC3 (UniProt Q8TF64),-0.481,-0.0967,-0.214
GIT1 (UniProt Q9Y2X7),0.346,-0.311,-0.368
GIT2 (UniProt Q14161),1.13,1.87,1
GK (UniProt P32189),0.371,0.195,0.46
GKAP1 (UniProt Q5VSY0),0.161,0.36,-0.0462
GLA (UniProt P06280),-1.1,-0.822,0.421
GLB1 (UniProt P16278),-0.564,-0.0527,-0.438
GLCCI1 (UniProt Q86VQ1),-0.207,-0.418,-0.627
GLCE (UniProt O94923),0.386,0.177,0.231
GLG1 (UniProt Q92896),-1.88,-1.9,-0.0446
GLMN (UniProt Q92990),-0.559,-0.296,-0.181
GLMP (UniProt Q8WWB7),2.79,3.71,3.11
